Laboratory results taken from the supplement of paper PMC4862054.

How the values were obtained:
Assay in all cases: normalised response (% of control), CellTox Green; higher = less cell death (100 = DMSO, 0 = benzethonium chloride kill control)
Details in all cases: incubation time: 72 h
[1] = tested on: HCC1143
In short: (§1)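 A 20 µl suspension of breast cancer cells was seeded into each well of 384-well plates containing compound at 5 concentrations in 10-fold steps over a compound-specific 10,000-fold range. After 72 h incubation, CellTox Green fluorescence (485/520 nm) was read first, and CellTiter-Glo luminescence was read after 10 min at room temperature. Each plate was normalised against 0.1 % DMSO (100) and a positive kill control (0), and each value is the normalised signal at one concentration.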

[2] = tested on: BT-549
In short: as §1

[3] = tested on: BT-474
In short: as §1

[4] = tested on: MCF-10A
In short: as §1

[5] = tested on: HDQ-P1
In short: as §1

[6] = tested on: DU-4475
In short: as §1

[7] = tested on: HCC1599
In short: as §1

[8] = tested on: CAL-51
In short: as §1

[9] = tested on: MDA-MB-231
In short: as §1

[10] = tested on: MFM-223
In short: as §1

[11] = tested on: MDA-MB-436
In short: as §1

[12] = tested on: CAL-85-1
In short: as §1

[13] = tested on: HCC1937
In short: as §1

Compound | normalised response [1] [%] | normalised response [2] [%] | normalised response [3] [%] | normalised response [4] [%] | normalised response [5] [%] | normalised response [6] [%] | normalised response [7] [%] | normalised response [8] [%] | normalised response [9] [%] | normalised response [10] [%] | normalised response [11] [%] | normalised response [12] [%] | normalised response [13] [%]
CN1CCC(COc2cnc(-c3cccc(Cn4nc(-c5cccc(C#N)c5)ccc4=O)c3)nc2)CC1 (1000 nM) | 128 | 115 | 98.4 | 88.3 | 95.5 | 105 | 106 | 99.9 | 125 | 94 | 112 | 85 | 123
CN(C)C/C=C/C(=O)Nc1cc2c(Nc3ccc(F)c(Cl)c3)ncnc2cc1O[C@H]1CCOC1 [Afatinib] (1000 nM) |  | 107 | 52.4 | 99.6 | 93.8 | 106 | 104 | 106 | 117 | 99.8 | 102 | 66.4 | 
CN1CC[C@H](c2c(O)cc(O)c3c(=O)cc(-c4ccccc4Cl)oc23)[C@H](O)C1 [Alvocidib] (1000 nM) | 85.1 | 83.2 | 90.2 | 18.7 | 58 | 85.3 | 50.4 | 77.1 | 30.7 | 56.6 | 80.5 | 24.9 | 115
Nc1nc(Cl)nc2c1ncn2[C@H]1C[C@H](O)[C@@H](CO)O1 [Cladribine] (100 nM) | 119 | 127 | 99.7 |  | 110 | 103 | 98.3 | 109 |  | 78.7 | 73.8 | 104 | 85.4
Nc1nc(Cl)nc2c1ncn2[C@H]1C[C@H](O)[C@@H](CO)O1 [Cladribine] (1000 nM) |  | 86.3 | 102 | 100 | 95.9 | 100 | 96 | 107 | 86.3 | 74.4 | 85.4 | 83.4 | 92.2
COc1cccc2c1C(=O)c1c(O)c3c(c(O)c1C2=O)C[C@@](O)(C(=O)CO)C[C@@H]3O[C@H]1C[C@H](N)[C@H](O)[C@H](C)O1 [Doxorubicin] (100 nM) |  | 160 | 105 | 115 | 78.6 | 96.4 | 100 | 43.3 | 111 | 86.3 | 95.2 | 96.4 | 134
Cc1ccc(F)c(NC(=O)Nc2ccc(-c3cccc4[nH]nc(N)c34)cc2)c1 [Linifanib] (1000 nM) | 87.2 | 122 | 101 | 90 |  | 106 | 104 | 99.5 | 110 | 101 | 107 | 65.7 | 104
Clc1ccc(C(c2ccccc2Cl)C(Cl)Cl)cc1 (stereo not drawn) [Mitotane] (10000 nM) | 68.9 | 93.4 | 98 | 100 | 106 | 97.7 | 99.5 | 98.5 |  | 96.9 | 99.5 | 107 | 
COc1cccc2cc(-c3nc([C@H]4CC[C@H](C(=O)O)CC4)n4ncnc(N)c34)[nH]c12 [OSI-027] (1000 nM) |  | 102 | 100 | 106 | 108 | 97.3 | 101 | 104 | 65 | 98.9 | 91.9 | 93.6 | 
N#CC[C@H](C1CCCC1)n1cc(-c2ncnc3[nH]ccc23)cn1 [Ruxolitinib] (1000 nM) | 102 | 127 | 100 |  | 86.3 | 95.8 | 95.2 | 111 | 107 | 96.2 | 96.2 | 108 | 
N#CC[C@H](C1CCCC1)n1cc(-c2ncnc3[nH]ccc23)cn1 [Ruxolitinib] (10000 nM) | 98.3 | 113 | 98.6 | 90 |  | 98.2 | 96.7 | 76.2 | 93.4 | 94.1 | 97.7 | 84.8 | 
C=CC[C@@H]1/C=C(\C)C[C@H](C)C[C@H](OC)[C@H]2O[C@@](O)(C(=O)C(=O)N3CCCC[C@H]3C(=O)O[C@H](/C(C)=C/[C@@H]3CC[C@@H](O)[C@H](OC)C3)[C@H](C)[C@@H](O)CC1=O)[C@H](C)C[C@@H]2OC [Tacrolimus] (1000 nM) | 102 | 116 | 99.5 | 108 |  | 100 | 90.2 | 110 | 108 |  | 89.6 | 96.3 | 97.2
C=CC[C@@H]1/C=C(\C)C[C@H](C)C[C@H](OC)[C@H]2O[C@@](O)(C(=O)C(=O)N3CCCC[C@H]3C(=O)O[C@H](/C(C)=C/[C@@H]3CC[C@@H](O)[C@H](OC)C3)[C@H](C)[C@@H](O)CC1=O)[C@H](C)C[C@@H]2OC [Tacrolimus] (10000 nM) | 91.2 | 103 | 101 | 70.6 | 88.2 | 99.8 | 100 | 97.9 |  | 98.3 | 92.5 | 92.3 | 93.6
CS(=O)(=O)c1ccc(C(=O)Nc2ccc(Cl)c(-c3ccccn3)c2)c(Cl)c1 [Vismodegib] (1000 nM) |  | 99.3 | 100 | 88.2 | 88.1 | 99 | 85.9 | 86.1 | 90.8 | 99.1 | 98 | 94.4 | 106
